Tests used:
MDA-MB-231 = assay: cells; conditions: Homo sapiens, MDA-MB-231, 72 h
Description: Cytotoxicity against human MDA-MB-231 cells assessed as inhibition of cell proliferation incubated for 72 hrs by celltiter-glo assay

[1] = target: T1, Oxysterol-binding protein 1 (Homo sapiens, UniProt P22059); assay: Binding affinity to OSBP (unknown origin) ORD domain assessed as dissociation constant by FRET assay
T1 sequence (P22059 whole entry): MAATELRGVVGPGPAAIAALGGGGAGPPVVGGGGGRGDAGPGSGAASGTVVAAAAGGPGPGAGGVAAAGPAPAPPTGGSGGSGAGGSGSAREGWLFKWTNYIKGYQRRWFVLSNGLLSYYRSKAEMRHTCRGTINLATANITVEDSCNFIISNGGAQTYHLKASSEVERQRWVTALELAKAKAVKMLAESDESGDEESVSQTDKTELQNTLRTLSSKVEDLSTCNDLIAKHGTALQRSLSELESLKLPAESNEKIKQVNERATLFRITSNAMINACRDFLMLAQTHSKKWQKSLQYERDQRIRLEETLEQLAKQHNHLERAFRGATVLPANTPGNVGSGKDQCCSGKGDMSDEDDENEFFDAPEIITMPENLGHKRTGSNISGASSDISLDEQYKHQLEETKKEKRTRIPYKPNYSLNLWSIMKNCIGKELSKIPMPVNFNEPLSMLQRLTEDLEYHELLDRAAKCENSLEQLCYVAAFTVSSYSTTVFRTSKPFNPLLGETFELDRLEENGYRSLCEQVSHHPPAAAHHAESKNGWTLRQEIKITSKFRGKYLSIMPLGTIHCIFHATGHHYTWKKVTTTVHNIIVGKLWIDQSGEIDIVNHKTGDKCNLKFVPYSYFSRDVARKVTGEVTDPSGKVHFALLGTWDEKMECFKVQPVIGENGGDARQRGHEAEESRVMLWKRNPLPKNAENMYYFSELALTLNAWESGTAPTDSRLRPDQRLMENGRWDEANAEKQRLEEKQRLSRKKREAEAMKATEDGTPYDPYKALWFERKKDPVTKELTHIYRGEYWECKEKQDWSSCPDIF

in vitro [2] = conditions: human, MRC5 cells
Description: Cytotoxicity against human MRC5 cells assessed as inhibition of cell proliferation incubated for 72 hrs by celltiter-glo assay

PC-3 = assay: cells; conditions: Homo sapiens, PC-3, 72 h
Description: Cytotoxicity against human PC-3 cells assessed as inhibition of cell proliferation incubated for 72 hrs by celltiter-glo assay

in vitro [3] = conditions: human, RPE-1 cells (TERT-RPE1)
Description: Cytotoxicity against human RPE-1 cells assessed as inhibition of cell proliferation incubated for 72 hrs by celltiter-glo assay

in vitro [4] = conditions: human, HeLa cells
Description: Cytotoxicity against human HeLa cells assessed as inhibition of cell proliferation incubated for 72 hrs by celltiter-glo assay

A549 = assay: cells; conditions: Homo sapiens, A549, 72 h
Description: Cytotoxicity against human A549 cells assessed as inhibition of cell proliferation incubated for 72 hrs by celltiter-glo assay

MCF7 = assay: cells; conditions: Homo sapiens, MCF7, 72 h
Description: Cytotoxicity against human MCF7 cells assessed as inhibition of cell proliferation incubated for 72 hrs by celltiter-glo assay

- IC50 (MDA-MB-231): 0.3 µM
- Kd [1]: 0.022 µM
- IC50 at 72 h (in vitro [2]): 0.3 µM
- IC50 (PC-3): 0.3 µM
- IC50 at 72 h (in vitro [3]): 0.4 µM
- IC50 at 72 h (in vitro [4]): 0.1 µM
- IC50 (A549): 0.5 µM
- IC50 (MCF7): 1 µM
SMILES: CC(C)=CCc1c(O)cc(/C=C/c2cc(O)c3c(c2)C[C@@H]2C(C)(C)[C@H](O)CC[C@@]2(C)O3)cc1O [SCHWEINFURTHIN G]
